Measurements: PMC5011342, “A high throughput drug screening assay to identify compounds that promote oligodendrocyte differentiation using acutely dissociated and purified oligodendrocyte precursor cells” (BMC Research Notes, 2016)
Like-named read-outs stand apart in the source and are kept apart here.

Columns and labels:
[1] = system: acutely dissociated and purified rat OPCs; experiment: Acute OL differentiation assay (MBP expression/cell, immunofluorescent image quantification); assay type: cell-based; settings: Rattus norvegicus, sheet "All OLga data"; for activation at 0.4 µM: 0.4 uM test compound, read-out: OL differentiation, 0.4 uM (% Quet)
Summary of the method: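 This acute differentiation assay used purified rat OPCs from postnatal day 6–7 pups, seeded into PDL/laminin-coated 96-well plates in differentiation medium lacking PDGF and FGF. Compounds were applied in quadruplicate after a 1–2 h preincubation at 37 °C, 10 % CO2, with 0.1 % DMSO negative and 40 ng/ml T3 positive controls in eight wells. After fixation on DIV4, anti-MBP immunofluorescence images yielded MBP expression/cell.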

expanded OPCs = experiment: cells; settings: for viability at 0.1 µM / viability at 1 µM / viability at 10 µM: Rattus norvegicus, 72 h; for 0.1 µM (% DMSO) / 1 µM (% DMSO) / 10 µM (% DMSO): alamarBlue viability of expanded OPCs, relative to DMSO control; for 0.1 µM (% DMSO): compound at 0.1 µM; for 1 µM (% DMSO): compound at 1 µM; for 10 µM (% DMSO): compound at 10 µM
Summary of the method: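 Toxicity screen: compounds added at 0.1, 1 and 10 µM to PDGF-AA-expanded OPCs in 96-well plates, 3-day incubation at 37 °C, 10% CO2, then alamarBlue 1:10 for 4 h with fluorescence readout. Results set screening doses of 10/2, 2/0.4 or 0.4/0.08 µM.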

[2] = 2 uM test compound, relative to quetiapine, read-out: OL differentiation, 2 uM (% Quet)
[3] = 10 uM test compound, relative to quetiapine, read-out: OL differentiation, 10 uM (% Quet)
[4] = read-out: 0.1 µM (% DMSO), alamarBlue viability of expanded OPCs, compound at 0.1 µM, sheet All Tox data
[5] = read-out: 1 µM (% DMSO), alamarBlue viability of expanded OPCs, compound at 1 µM, sheet All Tox data
[6] = read-out: 10 µM (% DMSO), alamarBlue viability of expanded OPCs, compound at 10 µM, sheet All Tox data
[7] = test compound at 2 uM, MBP expression relative to quetiapine, NCC library screen, read-out: 2 uM (% Quet)
[8] = test compound at 10 uM, MBP expression relative to quetiapine, NCC library screen, read-out: 10 uM (% Quet)
[9] = test compound at 2 uM, NCC library screen, relative to quetiapine, read-out: 2 uM (% Quet)
[10] = test compound at 10 uM, NCC library screen, relative to quetiapine, read-out: 10 uM (% Quet)
[11] = read-out: 1 µM (% DMSO), alamarBlue viability, NCC library compound at 1 µM, sheet "All Tox data"
[12] = read-out: 10 µM (% DMSO), alamarBlue viability, NCC library compound at 10 µM, sheet "All Tox data"

## Cc1c(O)c(=O)ccn1C [Deferiprone]
[1]; [2]
  activation at 2 µM: 6.6%
[1]; [3]
  activation at 10 µM: 37.1%
Expanded OPCs; [4]
  viability at 0.1 µM: 91.3%
Expanded OPCs; [5]
  viability at 1 µM: 90.1%
Expanded OPCs; [6]
  viability at 10 µM: 84.8%

## CCc1c(C)[nH]c2c1C(=O)C(CN1CCOCC1)CC2 (centres unmarked) [Molindone]
[1]; [7]
  activation at 2 µM: 1.6%
[1]; [8]
  activation at 10 µM: -34.4%
Expanded OPCs
  0.1 µM (% DMSO): 90.6 % DMSO
  1 µM (% DMSO): 95.4 % DMSO
  10 µM (% DMSO): 105.0 % DMSO

## Cc1cccc(Nc2ccncc2S(=O)(=O)NC(=O)NC(C)C)c1 [Torsemide]
[1]; [2]
  activation at 2 µM: 31.2%
[1]; [3]
  activation at 10 µM: -6.1%
Expanded OPCs; [4]
  viability at 0.1 µM: 90.5%
Expanded OPCs; [5]
  viability at 1 µM: 88.3%
Expanded OPCs; [6]
  viability at 10 µM: 93.4%

## Clc1ccccc1C(c1ccccc1)(c1ccccc1)n1ccnc1 [Clotrimazole]
[1]; relative to quetiapine
  activation at 0.4 µM: 43.9%
[1]; [2]
  activation at 2 µM: 171%
Expanded OPCs; [4]
  viability at 0.1 µM: 82.3%
Expanded OPCs; [5]
  viability at 1 µM: 125%
Expanded OPCs; [6]
  viability at 10 µM: 54.9%

## OCCN(CCO)c1nc(N2CCCCC2)c2nc(N(CCO)CCO)nc(N3CCCCC3)c2n1 [Dipyridamole]
[1]; [9]
  activation at 2 µM: 13.5%
[1]; [10]
  activation at 10 µM: -27.3%
Expanded OPCs
  0.1 µM (% DMSO): 107.4 % DMSO
  1 µM (% DMSO): 102.2 % DMSO
  10 µM (% DMSO): 87.5 % DMSO

## CCc1nc(N)nc(N)c1-c1ccc(Cl)cc1 [Pyrimethamine]
[1]; [9]
  activation at 2 µM: -12.3%
[1]; [10]
  activation at 10 µM: -35.3%
Expanded OPCs; read-out: 0.1 µM (% DMSO), alamarBlue viability, NCC library compound at 0.1 µM, sheet "All Tox data"
  viability at 0.1 µM: 100%
Expanded OPCs; [11]
  viability at 1 µM: 99.6%
Expanded OPCs; [12]
  viability at 10 µM: 66.5%

## CCCNC(=O)NS(=O)(=O)c1ccc(Cl)cc1 [Chlorpropamide]
[1]; [9]
  activation at 2 µM: -27.8%
[1]; [10]
  activation at 10 µM: -19%
Expanded OPCs
  0.1 µM (% DMSO): 185.9 % DMSO
  1 µM (% DMSO): 197.2 % DMSO
  10 µM (% DMSO): 208.8 % DMSO

## CCn1cc(C(=O)O)c(=O)c2cc(F)c(N3CCNCC3)cc21 [Norfloxacin]
[1]; [9]
  activation at 2 µM: -20.2%
[1]; [10]
  activation at 10 µM: -13%
Expanded OPCs
  0.1 µM (% DMSO): 111.0 % DMSO
  1 µM (% DMSO): 105.5 % DMSO
  10 µM (% DMSO): 99.0 % DMSO

## NC[C@H]1CC[C@H](C(=O)Oc2ccc(CCC(=O)O)cc2)CC1 [Cetraxate]
[1]; [2]
  activation at 2 µM: -6.2%
[1]; [3]
  activation at 10 µM: -5.4%
Expanded OPCs; [4]
  viability at 0.1 µM: 103%
Expanded OPCs; [5]
  viability at 1 µM: 92.1%
Expanded OPCs; [6]
  viability at 10 µM: 104%

## CC(C)NCC(O)COc1ccc(COCCOC(C)C)cc1 (centres unmarked) [Bisoprolol]
[1]; [2]
  activation at 2 µM: -18.8%
[1]; [3]
  activation at 10 µM: -17.3%
Expanded OPCs; [4]
  viability at 0.1 µM: 91.3%
Expanded OPCs; [5]
  viability at 1 µM: 89.8%
Expanded OPCs; [6]
  viability at 10 µM: 96.5%

## CCC[C@@H]1C[C@@H](C(=O)N[C@@H]([C@H]2O[C@H](SC)[C@H](O)[C@@H](O)[C@H]2O)[C@@H](C)O)N(C)C1 [Lincomycin]
[1]; [7]
  activation at 2 µM: 12.6%
[1]; [8]
  activation at 10 µM: -2.9%
Expanded OPCs
  0.1 µM (% DMSO): 93.6 % DMSO
  1 µM (% DMSO): 94.1 % DMSO
  10 µM (% DMSO): 87.7 % DMSO

## O=C(O)CCc1nc(-c2ccccc2)c(-c2ccccc2)o1 [Oxaprozin]
[1]; [2]
  activation at 2 µM: -15.3%
[1]; [3]
  activation at 10 µM: -15%
Expanded OPCs; [4]
  viability at 0.1 µM: 91.8%
Expanded OPCs; [5]
  viability at 1 µM: 86.6%
Expanded OPCs; [6]
  viability at 10 µM: 78%

## CC[C@]1(O)C[C@@H]2CN(CCc3c([nH]c4ccccc34)[C@@](C(=O)OC)(c3cc4c(cc3OC)N(C)[C@H]3[C@@](O)(C(N)=O)[C@H](O)[C@]5(CC)C=CCN6CC[C@]43[C@@H]65)C2)C1 [Vindesine]
[1]; test compound at 0.08 uM, NCC library screen, relative to quetiapine, read-out: 0.08 uM (% Quet)
  activation at 0.08 µM: -193%
Expanded OPCs; [11]
  viability at 1 µM: 11.4%
Expanded OPCs; [12]
  viability at 10 µM: 9.2%

## Cc1cc2c(s1)Nc1ccccc1N=C2N1CCN(C)CC1 [Olanzapine]
[1]; relative to quetiapine
  activation at 0.4 µM: -3%
[1]; [2]
  activation at 2 µM: -9.8%
Expanded OPCs; [4]
  viability at 0.1 µM: 90.8%
Expanded OPCs; [5]
  viability at 1 µM: 60.6%
Expanded OPCs; [6]
  viability at 10 µM: 30.2%
